Source: patent US11534457B2, “Use of dextran sulfate” (priority 2017, dated 2022)

Test system: Human umbilical vein endothelial cells (HUVECs)
Experiment: Gene expression array and pathway analysis, HUVECs
Type: cell-based
Protocol: For each cell line, n=8×25 cm^2 culture flasks were set up. Two flasks were harvested for each cell type on the day of treatment (24 hours after seeding). This represents the Day0 time point. From the remaining flasks, three flasks were treated with Control Medium and three were treated with Culture Medium (CM) containing LMW-DS to give a final concentration of 0.01 mg/ml. Cells from the treated flasks were collected after 48 hours. Therefore the collected data represent (a) untreated cells (Day0 Controls and Day2 Controls) and (b) cells treated with LMW-DS for 48 hours (Day2 LMW-DS treated).
25 cm^2 flasks were coated by adding 2 ml per flask of a solution of 50 μg/ml poly-d-lysine in Hank's balanced salt solution (HBSS) and incubating overnight at 37° C. in the dark. Flasks were washed with cell culture water and air-dried for 30 min in the dark. Flasks were coated by adding 1 ml per flask of a solution of 25 μg/ml laminin in phosphate-buffered saline (PBS) and incubating for 2 hour at 37° C. in the dark. The laminin flasks were washed with PBS three times before plating cells.
Medium 200+Large Vessel Endothelial Supplement (M200+LVES) additive (1:50) was prepared and pre-warmed to 37° C. Cells were thawed in a 37° C. water bath for no longer than 2 min and gently transferred into a 50 ml tube containing 20 ml Dulbecco's Modified Eagle Medium, Nutrient Mixture F-12 (DMEM-F12). The cell suspension was mixed by inverting the tube carefully twice. Cells were spun at 400×g for 10 minutes. Supernatant removed and cells were resuspended in 10 ml of culture media (M200+LVES additive).
Cells were counted with the Cellometer. 1,000,000 cells/flask were seeded in 25 cm^2 flasks (n=8) and medium was topped up to a total of 5 ml per flask. Cells were incubated at 37° C. with 5% CO2. Cells were allowed to settle for 24 hours before LMW-DS treatment.
LMW-DS was provided at a stock concentration of 20 mg/ml and was kept in a temperature monitored refrigerator at 4° C. A fresh […]LMW-DS stock (1.0 mg/ml) was prepared in sterile DMEM-F12. The concentrated drug stock was sterile filtered and added to the respective culture media (19.6 ml CM and 0.4 ml LMW-DS stock solution). The Control was made using 19.6 ml CM and 0.4 ml of DMEM-F12. LMW-DS and CM were added to the respective flasks (5 ml each) to reach the 0.01 mg/ml concentration of LMW-DS in each dish with a total of 10 ml CM each.
CM was aspirated into a clean and labelled 15 ml Falcon tube. The flasks (without culture medium) were placed into the −80° C. freezer for 30 minutes. The CM in the Falcon tubes were spun at 3000×g for 5 minutes. Supernatant was removed and the small pellet was re-suspended in 2.5 ml Trizol:Water (4:1) solution at room temperature (RT, […]).
Two aliquots of 1 ml lysate was removed from each sample and 200 μl of chloroform was added to each (0.2 ml of chloroform per 1 ml of TRIzol Reagent used during the cell lysis step) and the tube was shaken vigorously. Samples were stored at RT for 2-3 minutes and subsequently centrifuged at 12,000×g for 15 minutes at 4° C.
The expression data were downloaded into separate files for each cell line. The ‘Background corrected’ expression is the data from the “gProcessedSignal” of the arrays that is the result of the background signal extracted from the actual signal of the relevant probe. This is the most often used variable in array analysis. The background corrected signal was log 2 transformed for all samples for statistical analysis. To reduce the false discovery rate in the samples, the signals that were below ‘expression level’ were removed. The ‘below expression’ level was set at 5 for the log 2 transformed expression values.
Based on the expression pattern of the Control probes on each array it was decided to carry out Median Centering for all arrays before analysis to reduce the variability of the results. […]

## low molecular weight dextran sulfate [LMW-DS]
0.01 mg/ml, 48 h
  aggregate effect on adhesion and angiogenesis (1 molecule, ADAM11): adhesion would not be affected but angiogenesis would be activated
  differential regulation of the 197 genes regulating cell attachment: none are differentially regulated
  modulation of the effects of oxidative stress on mitochondria: no significant modulation
  number of genes differentially expressed, D0 control vs D2 LMW-DS treated: 1779 genes
  number of genes differentially expressed, D2 control vs D2 LMW-DS treated: 76 genes
  number of genes: abolished nutrient effect / no effect: 67
  number of genes: abolished nutrient effect / significant downregulation: 4
  number of genes: abolished nutrient effect / significant upregulation: 11
  number of genes: abolished nutrient effect / total: 82
  number of genes: enhanced response to nutrients / significant downregulation: 120
  number of genes: enhanced response to nutrients / significant upregulation: 229
  number of genes: enhanced response to nutrients / total: 349
  number of genes: not different from control / significant downregulation: 167
  number of genes: not different from control / significant upregulation: 1326
  number of genes: not different from control / total: 1493
  number of genes: total / no effect: 67
  number of genes: total / significant downregulation: 291
  number of genes: total / significant upregulation: 1566
  number of genes: total / total: 1924
D2 LMW-DS treatment
  upstream regulator HGF: activation z-score: 3.194
  upstream regulator HGF: predicted activation state relative D2 control: Activated relative to control
  upstream regulator TGFβ1: activation z-score: 1.429
  upstream regulator TGFβ1: predicted activation state relative D2 control: Activated relative to control
  upstream regulator VEGF: activation z-score: 3.432
  upstream regulator VEGF: predicted activation state relative D2 control: Activated relative to control
